Data taken from publication PMC11117691, “Flipping the GPCR Switch: Structure-Based Development of Selective Cannabinoid Receptor 2 Inverse Agonists” (ACS Central Science, 2024).

Legend:
rat CB2R = assay: Live cell fluorescent Ca2+ imaging (Fluo-4AM) in AtT-20(rCB2R) cells; assay type: cell-based; settings: 20 μM, live AtT-20(rCB2R) cells; HU-308 added after (S)-3/(R)-3
Experimental: Live AtT-20 cells overexpressing rat CB2R [AtT-20(rCB2R)] were treated with Fluo-4AM Ca^2+ dye and imaged by confocal microscopy (Figure 7). […] Ionomycin was added at the end of the experiment to saturate Ca^2+ levels.
Culture media (D10): Contains high glucose DMEM (450 mL, Gibco, #11965-092), FBS (50 mL, HyClone’s USDA tested, #SH30910), antibiotic Penicillin-strep (2.5 mL, Gibco, #15070).
Sterile filtered and aliquoted.
Culture media (D10) with hygromycin-B selection: Contains high glucose DMEM (450 mL, Gibco, #11965-092), FBS (50 mL, HyClone’s USDA tested, #SH30910), antibiotic Penicillin-strep (2.5 mL, Gibco, #15070). Sterile filtered and aliquoted. Selection maintained with Hygromycin-B (200 µg/mL, Thermo Fisher Scientific, #10687010).
Imaging buffer: Contains (in mM): 115 NaCl, 1.2 CaCl2, 1.2 MgCl2, 1.2 K2HPO4, 20 HEPES, 20 D-glucose. Adjusted to pH 7.4 with NaOH. Sterile filtered and aliquoted.
AtT-20 wild type (WT) and overexpressing rat CB2R cells (AtT-20(rCB2R)) were cultured in D10 culture media. […]
Fluorescence images were acquired with an Olympus Fluoview 1200 laser scanning confocal microscope using a 63× objective. […] For a direct comparison of the AtT-20(rCB2R) and wild type cells, one well of each genotype was labelled in parallel, and the identical settings on the confocal microscope were used between wells to accurately compare the dye fluorescence intensities.

hCB2R [1] = biological target: T1, hCB2R (Homo sapiens, UniProt P34972); assay: TR-FRET kinetic binding assay at CB2R; parameters: expressed in transfected cells; host or cells: HEK293-TR cells, tetracycline-induced; membrane preparations; settings: for koff / kon / τ (receptor residence time) / Kd: hCB2R-HEK293 membranes, mean N = 3; for Kd: kinetic Kd
hCB2R [2] = biological target: T1, hCB2R; assay: cAMP HTRF assay in hCB2R-CHO cells; assay type: cell-based; parameters: expressed in transfected cells; settings: for EC50: hCB2R-CHO cells, forskolin stimulated, mean N = 3
Description: One of the canonical signaling pathways of CB2R involves association with Gαi/o proteins, which elicit reversible inhibition of adenylyl cyclase resulting in a decrease of cellular cAMP levels and suppression of protein kinase A activity.[67] Consequently, we have investigated the change in cAMP levels upon probe addition using homogeneous time-resolved fluorescence (HTRF) cAMP assay (Table 3).
Homogeneous Time-Resolved Fluorescence (HTRF) cAMP assay
The homogeneous time-resolved fluorescence (HTRF) cAMP assay was conducted according to the manufacturer’s protocol for the cAMP-Gs Dynamic kit (Cisbio). Briefly, the CHO cell line stably overexpressing CB2R was maintained in Ham’s F12 supplemented with 10% FBS, penicillin (100 U/mL, Gibco-ThermoFisher), streptomycin (100 μg/mL, Gibco-ThermoFisher) and G418 (400 μg/mL, ThermoFisher). For CB2R compounds test, the cells were harvested with Cell Dissociation Buffer, resuspended in F-12 K at 0.4×10^6 cells/mL, and dispensed into 384-well low volume plates at 2000 cells/5 μL per well. The cells were stimulated with compounds diluted in Stimulation Buffer (2.5 μL/well) for 15 min at room temperature, followed by the addition of forsklin (2.5 μL 25 μM). After 15 mins incubation, reactions were stopped by 5 μL/well cAMP-d2 conjugate working solution followed by 5 μL/well of anti-cAMP cryptate working solution. After incubation for 1 h at room temperature, the plates were read in a PerkinElmer Envision reader for Time-Resolved Förster Resonance Energy Transfer (TR-FRET) at 620 nm and 665 nm.
β–arrestin recruitment assay
SNAP-tagged human CB2R HEK293-TR cells were maintained in a humidified environment at 37 °C and 5% CO2 in Dulbecco’s modified Eagle’s medium (DMEM) with 10% fetal bovine serum (FBS) containing blasticidin (5 µg/mL; Invitrogen) and (Zeocin; 20 µg/mL; Invitrogen). For receptor-inducible expression, cells were seeded into t175 cm2 flasks, grown to 70% confluence and DMEM containing 1 µg/ml tetracycline added.
HEK293TR-CB2R-nLuc cells expressing a fluorescently labelled β-arrestin protein were maintained in a humidified environment at 37 °C and 5% CO2 in Dulbecco’s modified Eagle’s medium (DMEM) with 10% fetal bovine serum (FBS) containing blasticidin (5 µg/mL; Invitrogen), Zeocin (20 µg/mL; Invitrogen) and G418 (0.2 mg/mL; Invitrogen) and used to assess compound stimulated β-arrestin recruitment to the human CB2R. Cultured cells were harvested upon reaching 70% confluency and plated at a seeding density of 50,000 cells per well. The cells were grown for 48 h until they reached confluency and then stimulated with 1 μg/mL tetracycline for a further 48 h to induce CB2R expression. Cell culture media was then aspirated from the wells and the cells were washed with assay buffer, 100 μL/well HBSS containing 0.5% BSA and 5 mM

hCB2R [3] = biological target: T1, hCB2R; assay type: cell-based; parameters: expressed in transfected cells; host or cells: HEK293TR cells, tetracycline-induced, live cells; settings: HEK293TR-CB2R-nLuc cells, representative of N = 3
Experimental: HEPES. Following the wash, assay buffer containing 10 μM furimazine, 90 μL/well was added
to the wells. The plate was then incubated at 37 °C for 15 minutes to allow the nanoLuc substrate
furimazine to enter the cells. Three BRET cycles of 1-minute intervals were performed to assess
basal BRET levels, following which 10 μL of each compound, diluted in assay buffer was added
to the assay plate, which was read at 1-minute intervals for 30 minutes.
Buffer containing 10% DMSO (1% final) served as the vehicle control and
The assay buffer used to profile compounds in the CB 2R Gi-CASE system consisted of HBSS
containing 0.02% pluronic F127, 0.5% BSA and 5 mM HEPES. The reference compounds HU -
polypropylene plate. 0.5 µL of the reference and test compound serial dilutions was then added to
a white 384 well OptiplateTM (PerkinElmer) containing 39.5 μL of assay buff er. Finally, the CB 2R
membranes containing the G i-CASE biosensor were thawed and added into assay buffer containing
50 µM furimazine. Membranes (10 μL) were added to the assay plate at a final concentration of 5
µg/well. The total assay volume was 50 µL.

hCB2R [4] = biological target: T1, hCB2R; assay: BRET Gi-CASE G protein recruitment membrane assay; assay type: biochemical; parameters: expressed in transfected cells; host or cells: HEK293-TR cells, tetracycline-induced; membrane preparations; settings: for EC50: hCB2R-HEK293 T-REx membranes, mean N = 3–4, read-out: pEC50 (Gi-CASE G protein recruitment) (converted)
hCB2R [5] = biological target: T1, hCB2R; assay: TR-FRET saturation binding assay at CB2R; parameters: expressed in transfected cells; host or cells: HEK293-TR cells, tetracycline-induced; membrane preparations; settings: room temperature; for Kd: TR-FRET, HEK293 membranes of SNAP-Lumi4-Tb labeled hCB2R
[6] = system: CB2R-mediated phosphorylation of endogenous ERK1/2; assay: AlphaScreen SureFire phospho-ERK assay in CB2R inducible HCC1954 cells; assay type: cell-based; settings: 1 μM, 30 min, versus vehicle
Experimental: Activation of CB2R is associated with downstream stimulation of mitogen-activated protein kinases, such as ERK1/2, mediated via either Gβγ or β-arrestins.[70],[71] We have tested representative high-affinity fluorescent probe (R)-2 for CB2R-mediated phosphorylation of endogenous ERK1/2 in a CB2R inducible breast cancer HCC1954 cell line using the AlphaScreen SureFire phospho-ERK assay (Figure 6). […] (1 μM), or (R)-2 (1 μM) for 30 min. Following cell lysis, lysates were incubated with a mixture containing donor and acceptor beads for 2 h at room temperature and the luminescence emission signal was measured.
For ERK phosphorylation assay an inducible HCC1954 breast cancer cell line expressing CB2R […]
ERK1/2 phosphorylation was measured using AlphaScreen® SureFire® p‐ERK 1/2 assay kit according to manufacturer instructions (PerkinElmer) . Briefly, HCC1954 cells were seeded at a density of 100 000 cells/well in poly -D-lysine coated 96-well plates and incubated in absence or presence of 1 µg/ mL doxycycline for 24 h. On the next day prior to assay, cells were serum-starved for 2 h at 37°C. […] The plate was incubated for 2 h and ERK1/2 phosphorylation was measured on CLARIOstar® Plus Multimode Plate Reader (BMG Labtech, Germany), using a ratio of 620/570 nm. […]
Statistical significance was determined by one-way ANOVA followed by Tukey's post hoc test.

[7] = normalized to agonist CP-55,940 response (100%) and basal level (0%)

T1 sequence (P34972 whole entry): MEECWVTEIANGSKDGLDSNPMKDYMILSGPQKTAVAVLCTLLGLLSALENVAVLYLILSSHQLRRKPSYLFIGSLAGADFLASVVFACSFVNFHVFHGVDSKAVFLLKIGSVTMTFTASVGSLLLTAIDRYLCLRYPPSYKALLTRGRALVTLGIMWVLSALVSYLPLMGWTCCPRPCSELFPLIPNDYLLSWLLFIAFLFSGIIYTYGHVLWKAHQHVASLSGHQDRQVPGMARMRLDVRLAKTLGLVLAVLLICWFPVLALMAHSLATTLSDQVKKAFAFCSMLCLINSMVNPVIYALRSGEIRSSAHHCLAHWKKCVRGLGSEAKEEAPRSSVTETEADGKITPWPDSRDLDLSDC

In the case of `C#CCCC(=O)NCC1=CC(c2c(OC)cc(C(C)(C)C(CCCCCN=[N+]=[N-])c3ccccc3)cc2OC)C2CC1C2(C)C` [(S)-3/(R)-3], the “intracellular Ca2+ (Fluo-4AM fluorescence)” value (rat CB2R) is reported as “did not elicit increase in Fluo-4AM fluorescence”.

`CCCCCCC(C)(C)c1cc(OC)c([C@@H]2C=C(CO)[C@@H]3C[C@H]2C3(C)C)c(OC)c1` [HU-308, reference compound] was tested, and the “intracellular Ca2+ (Fluo-4AM fluorescence)” value (rat CB2R) was “triggered a robust fluorescence spike”.

In the case of RO7568997 [reference compound], the “dissociation rate of fluorescent tracer” value (hCB2R [1]; tracer of competition-association assay, value fixed in fitting, 37 °C) is reported as 1.13 min⁻¹.

`COc1cc(C(C)(C)C(CCCCCN=[N+]=[N-])c2ccccc2)cc(OC)c1C1C=C(CN)C2CC1C2(C)C` [(R)-1] was tested, and the EC50 (hCB2R [2]) was 112 nM, the “Emax (cAMP)” value (hCB2R [2]; [7]) was “–44%” and the “β-arrestin recruitment (BRET signal)” value (hCB2R [3]) was “Baseline BRET signal was retained”. The koff (hCB2R [1]; 37 °C) was 13.9 10^–2 min^–1, the kon (hCB2R [1]; 37 °C) was 12.0 10^6 M^–1 min^–1 and the “τ (receptor residence time)” value (hCB2R [1]; 37 °C) was 7.19 min. For the same molecule, the Kd (hCB2R [1]; 37 °C) was 11.6 nM, the EC50 (hCB2R [4]) was 158 nM and the Kd (hCB2R [5]) was 39.1 nM. The “fold greater binding affinity for CB2R in comparison to (S)-1” value (hCB2R [5]; ratio of Kd values) was 12 fold.

`COc1cc(C(C)(C)C(CCCCCN=[N+]=[N-])c2ccccc2)cc(OC)c1C1C=C(CN)C2CC1C2(C)C` [(S)-1] was tested, and the EC50 (hCB2R [2]) was 2690 nM, the Emax (hCB2R [2]; [7]) was -44% and the “β-arrestin recruitment (BRET signal)” value (hCB2R [3]) was “Baseline BRET signal was retained”. The koff (hCB2R [1]; 37 °C) was 115 10^–2 min^–1, the kon (hCB2R [1]; 37 °C) was 157000 M⁻¹ s⁻¹ and the “τ (receptor residence time)” value (hCB2R [1]; 37 °C) was 0.87 min. The Kd (hCB2R [1]; 37 °C) was 122 nM, the “fold increased potency of G protein recruitment over adenylyl cyclase inhibition” value (hCB2R [4]; Gi-CASE pEC50 versus cAMP pEC50) was 14 fold and the EC50 (hCB2R [4]) was 191 nM. The Kd (hCB2R [5]) was 476 nM.

For `CCCC(C)(C)c1ccc2c(c1)OC(C)(C)[C@@H]1CC=C(C)C[C@@H]21` [JWH133], the ERK1/2 phosphorylation level ([6]; CB2R expression induced with DOX (1 μg/mL)) was “effectively stimulated ERK1/2 phosphorylation” and the ERK1/2 phosphorylation level ([6]; absence of CB2R expression inducer (DOX)) was “remained the same”.

With `C#CCCC(=O)NCC1=CC(c2c(OC)cc(C(C)(C)C(CCCCCN=[N+]=[N-])c3ccccc3)cc2OC)C2CC1C2(C)C` [(S)-3] the EC50 (hCB2R [2]) was 40.7 nM, the “Emax (cAMP)” value (hCB2R [2]; [7]) was “–49%” and the “β-arrestin recruitment (BRET signal)” value (hCB2R [3]) was “Baseline BRET signal was retained”. The koff (hCB2R [1]; 37 °C) was 4.96 10^–2 min^–1, the kon (hCB2R [1]; 37 °C) was 44.3 10^6 M^–1 min^–1 and the “τ (receptor residence time)” value (hCB2R [1]; 37 °C) was 20.2 min. The Kd (hCB2R [1]; 37 °C) was 1.12 nM, the “ΔG (Experimental)” value (hCB2R [1]; ΔG exp = RT ln(Kd), T = 310 K, from experimental Kd values) was “–12.7 kcal mol-1” and the EC50 (hCB2R [4]) was 30.9 nM. It also gave a Kd (hCB2R [5]) of 2.1 nM.
